Measurements taken from patent US20260001883A1, “5H-PYRROLO[2,3-D]PYRIMIDIN-6(7H)-ONE AND CRYSTAL OF SALT THEREOF” (priority 2022, published 2026).
Counter-ions that a name gives are not always drawn.

Key:
Type in all cases: physicochemical
[1] = Solid state stability test (preservation stability, 70° C./75% RH, 2 weeks); details: for Appearance change / Powder X-ray diffraction pattern (change after preservation) / Total amount of analogous substances (%) 70° C./75% RH (closed system) / Total amount of analogous substances (%) 70° C./75% RH (open system) / amount of analogous substances after preservation (in words): after 2 weeks at 70° C./75% RH; for Total amount of analogous substances (%) 70° C./75% RH (closed system) / Total amount of analogous substances (%) 70° C./75% RH (open system) / Total amount of analogous substances (%) Initial value: HPLC; for Total amount of analogous substances (%) Initial value: before preservation, UV 220 nm
Method: The preservation stability of each of the type I crystal, type II crystal, and type III crystal of the free base of Compound (I), which were produced according to the methods described in Examples 1, 2 and 3 above, respectively, was tested under the following conditions. • Preservation conditions: 70° C./75% RH (open system and closed system) • Measuring point: 2 weeks • Preserved amount: about 50 mg • Preservation container: brown glass bottle
The powder X-ray diffraction of the sample after preservation was measured according to the aforementioned method. A change in the amount of analogous substances (the amount of substances detected other than Compound (I)) was measured by weighing out about 1 mg of the sample, dissolving it in about 5 mL of a water/acetonitrile mixed solution (1:1), accurately measuring 5 μL of this solution, and analyzing it by HPLC using the following method. • Column: InertSustain C18, 4.6×150 mm, 3 μm • Column temperature: 40° C. • Column flow rate: 1.0 mL/min • Mobile phase: A—10 mM phosphate buffer (pH 5.5)/acetonitrile (9:1); B—acetonitrile • Detection UV: 220 nm • Gradient: […]
The crystal of the hydrochloride of Compound (I), the crystal of the maleate of Compound (I), the crystal of ½ malate of Compound (I), and the crystal of the acetate of Compound (I),which were produced according to the methods described in Example 4, Example 5, Comparative Example 1, and Comparative Example 2, were tested in terms of preservation stability under the conditions of Test Example 1.

[2] = Dynamic moisture adsorption/desorption test; details: 25° C., humidity 5% RH to 95% RH and back to 5% RH
Method: For the test, a VTI-SA+ (TA Instruments) was used. About 10 mg of each of a free base type I crystal, a free base type II crystal, and a […] was weighed, and was placed in a pan. While confirming that the weight fluctuation was within 0.0100% in 5 minutes, the temperature was raised up to 60° C. at 1 degree per minute. If the weight fluctuated, the temperature was maintained for a maximum of 5 hours before proceeding to the next step. Thereafter, the temperature was lowered to 25° C., and the humidity was raised from 5% RH to 95% RH, and was then lowered to 5% RH. At that time, the humidity was changed by 5% RH while confirming that the weight fluctuation was within 0.00100% in 5 minutes. If the weight fluctuated, the humidity was maintained for a maximum of 2 hours before proceeding to the next step.
The crystal of the hydrochloride of Compound (I), the crystal of the maleate of Compound (I), the crystal of ½ malate of Compound (I), and the crystal of the acetate of Compound (I),which were produced according to the methods described in Example 4, Example 5, Comparative Example 1, and Comparative Example 2, were tested in terms of preservation stability under the conditions of Test Example 2.

[3] = Heat stability test (powder X-ray diffraction under heating to 210° C.); details: heating from 25° C. to 210° C.
Method: Using the free base type I crystal, the free base type II crystal, and the free base type III crystal, which were produced according to the methods described in Examples 1, 2 and 3 above, a heat stability test was carried out.
Powder X-ray diffraction measurement was carried out at 25° C., and the temperature was raised to 50° C. over 30 minutes, after which powder X-ray diffraction measurement was carried out. Thereafter, the temperature was further raised to 210° C. at 10° C./10 minutes, and powder X-ray diffraction measurement was then carried out. After that, the temperature was lowered to 25° C. over 30 minutes, and powder X-ray diffraction measurement was then carried out.

[4] = listed as crystal of the maleate of Compound (I)
[5] = listed as free base type III crystal
[6] = listed as free base type II crystal
[7] = listed as crystal of the ½ malate of Compound (I)
[8] = listed as crystal of the acetate of Compound (I)
[9] = listed as crystal of the hydrochloride of Compound (I)

| SMILES | Appearance change [1] | Powder X-ray diffraction pattern (change after preservation) [1] | Total amount of analogous substances (%) 70° C./75% RH (closed system) [1] | Total amount of analogous substances (%) 70° C./75% RH (open system) [1] | Total amount of analogous substances (%) Initial value [1] | further results |
| --- | --- | --- | --- | --- | --- | --- |
| CC(C)(C)NCCNc1ccc(-c2nnc(C(F)(F)F)o2)nc1C1CCN(c2ncnc3c2C(C)(C)C(=O)N3)CC1 [Free body type I crystal, 4-(4-(3-((2-(tert-butylamino)ethyl)amino)-6-(5-(trifluoromethyl)-1,3,4-oxadiazol-2-yl)pyridin-2-yl)piperidin-1-yl)-5,5-dimethyl-5H-pyrrolo[2,3-d]pyrimidin-6(7H)-one] | No significant | No significant | 0.5% | 0.5% | 0.6% | Powder X-ray diffraction pattern (change after preservation) ([1]; listed as type I crystal): no change was observed; hygroscopicity (moisture adsorption/desorption isotherm) [2]: excellent low hygroscopicity; hygroscopicity (moisture adsorption/desorption isotherm) ([2]; listed as free base type I crystal): low hygroscopicity; change of crystal form under heating (powder X-ray diffraction) ([3]; listed as free base type 1 crystal): no changes were observed in the crystal form |
| CC(C)(C)NCCNc1ccc(-c2nnc(C(F)(F)F)o2)nc1C1CCN(c2ncnc3c2C(C)(C)C(=O)N3)CC1 [Crystal of maleate, 4-(4-(3-((2-(tert-butylamino)ethyl)amino)-6-(5-(trifluoromethyl)-1,3,4-oxadiazol-2-yl)pyridin-2-yl)piperidin-1-yl)-5,5-dimethyl-5H-pyrrolo[2,3-d]pyrimidin-6(7H)-one] | No significant | No significant | 0.1% | 0.1% | 0.1% | Appearance change [1, 4]: no change was observed in appearance; Powder X-ray diffraction pattern (change after preservation) [1, 4]: no changes; amount of analogous substances after preservation (in words) [1, 4]: only small amounts of analogous substances; hygroscopicity (moisture adsorption/desorption isotherm) ([2]; listed as crystal of the maleate): low hygroscopicity |
| CC(C)(C)NCCNc1ccc(-c2nnc(C(F)(F)F)o2)nc1C1CCN(c2ncnc3c2C(C)(C)C(=O)N3)CC1 [Frcc body type III crystal, 4-(4-(3-((2-(tert-butylamino)ethyl)amino)-6-(5-(trifluoromethyl)-1,3,4-oxadiazol-2-yl)pyridin-2-yl)piperidin-1-yl)-5,5-dimethyl-5H-pyrrolo[2,3-d]pyrimidin-6(7H)-one] | No significant | No significant | 0.7% | 0.8% | 0.5% | Powder X-ray diffraction pattern (change after preservation) ([1]; listed as type III crystal): no change was observed; hygroscopicity (moisture adsorption/desorption isotherm) [2]: excellent low hygroscopicity; hygroscopicity (moisture adsorption/desorption isotherm) [2, 5]: low hygroscopicity; change of crystal form under heating (powder X-ray diffraction) [3, 5]: new peaks appeared |
| CC(C)(C)NCCNc1ccc(-c2nnc(C(F)(F)F)o2)nc1C1CCN(c2ncnc3c2C(C)(C)C(=O)N3)CC1 [Free body type II crystal, 4-(4-(3-((2-(tert-butylamino)ethyl)amino)-6-(5-(trifluoromethyl)-1,3,4-oxadiazol-2-yl)pyridin-2-yl)piperidin-1-yl)-5,5-dimethyl-5H-pyrrolo[2,3-d]pyrimidin-6(7H)-one] | No significant | No significant | 0.5% | 0.6% | 0.5% | Powder X-ray diffraction pattern (change after preservation) ([1]; listed as type II crystal): no change was observed; hygroscopicity (moisture adsorption/desorption isotherm) [2, 6]: low hygroscopicity; change of crystal form under heating (powder X-ray diffraction) [3, 6]: new peaks appeared |
| CC(C)(C)NCCNc1ccc(-c2nnc(C(F)(F)F)o2)nc1C1CCN(c2ncnc3c2C(C)(C)C(=O)N3)CC1 [Crystal of ½ malate, 4-(4-(3-((2-(tert-butylamino)ethyl)amino)-6-(5-(trifluoromethyl)-1,3,4-oxadiazol-2-yl)pyridin-2-yl)piperidin-1-yl)-5,5-dimethyl-5H-pyrrolo[2,3-d]pyrimidin-6(7H)-one] | No significant |  | 5.2% | 64.0% | 0.4% | Appearance change [1, 7]: no change in appearance; amount of analogous substances after preservation (in words) [1, 7]: large amounts of analogous substances |
| CC(C)(C)NCCNc1ccc(-c2nnc(C(F)(F)F)o2)nc1C1CCN(c2ncnc3c2C(C)(C)C(=O)N3)CC1 [Crystal of acetate, 4-(4-(3-((2-(tert-butylamino)ethyl)amino)-6-(5-(trifluoromethyl)-1,3,4-oxadiazol-2-yl)pyridin-2-yl)piperidin-1-yl)-5,5-dimethyl-5H-pyrrolo[2,3-d]pyrimidin-6(7H)-one] | No significant |  | 0.3% | 1.1% | 0.3% | Appearance change [1, 8]: no change in appearance; amount of analogous substances after preservation (in words) [1, 8]: large amounts of analogous substances |
| CC(C)(C)NCCNc1ccc(-c2nnc(C(F)(F)F)o2)nc1C1CCN(c2ncnc3c2C(C)(C)C(=O)N3)CC1 [Crystal of hydrochloride, 4-(4-(3-((2-(tert-butylamino)ethyl)amino)-6-(5-(trifluoromethyl)-1,3,4-oxadiazol-2-yl)pyridin-2-yl)piperidin-1-yl)-5,5-dimethyl-5H-pyrrolo[2,3-d]pyrimidin-6(7H)-one] | No significant | No significant | 0.2% | 0.2% | 0.2% | Appearance change [1, 9]: no change was observed in appearance; Powder X-ray diffraction pattern (change after preservation) [1, 9]: no changes; amount of analogous substances after preservation (in words) [1, 9]: only small amounts of analogous substances; hygroscopicity (moisture adsorption/desorption isotherm) ([2]; listed as crystal of the hydrochloride): lower hygroscopicity than the crystal of the ½ malate |
